From patent EP4759807A1, “PROTEOLYSIS TARGETING CHIMERA COMPOUND FOR DEGRADING IRAK4 AND USE THEREOF” (Shenzhen Zhongge Biological Technology Co., Ltd., priority 2023, dated 2025)

Columns and labels:
IRAK4 [1] = target: T1, IRAK4 (Homo sapiens, UniProt Q9NWZ3); experiment: WB detection of proteolysis (Western Blot, THP-1 cells); assay type: cell-based; settings: Western Blot, THP-1 cells, 24 h; for DC50: read-out: DC50
T1 sequence (Q9NWZ3 1-460): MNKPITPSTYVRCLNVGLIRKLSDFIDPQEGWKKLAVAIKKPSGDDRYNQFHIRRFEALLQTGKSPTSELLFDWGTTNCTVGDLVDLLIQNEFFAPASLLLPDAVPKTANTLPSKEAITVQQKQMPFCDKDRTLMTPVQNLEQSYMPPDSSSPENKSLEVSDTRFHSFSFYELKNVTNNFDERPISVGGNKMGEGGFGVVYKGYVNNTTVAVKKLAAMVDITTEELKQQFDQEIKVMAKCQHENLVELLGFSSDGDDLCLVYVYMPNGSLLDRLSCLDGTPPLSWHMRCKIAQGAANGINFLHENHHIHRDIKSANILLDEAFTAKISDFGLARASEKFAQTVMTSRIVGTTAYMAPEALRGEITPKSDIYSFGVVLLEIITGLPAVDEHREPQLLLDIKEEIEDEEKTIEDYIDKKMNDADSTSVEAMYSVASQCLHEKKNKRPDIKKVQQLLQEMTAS
Description: The degradation level of IRAK4 in THP-1 cells was detected by Western Blot technology. […] 1000X gradient dilution stock of the compound was prepared, with the highest concentration set at 300 µM. The dilution was carried out using DMSO in a 1:3 dilution factor, yielding a total of 9 concentrations. 1000X gradient dilutions of the compound were added to a 12-well plate, with 1 µL per well. Incubation was performed under conditions of 37°C and 5% CO2 for 24 h, and the cells were collected into 2 mL of centrifuge tubes and centrifuged at 5000 rpm for 5 min, and the supernatant was removed. 100 µL of RIPA lysis buffer (Beyotime, P0013C) was added and mixed uniformly, then the cells were lysed on ice for 10 min, centrifuged at 4°C at 14000 rpm for 10 min, and the supernatant was collected. Protein content was determined with BCA (Solarbio, PC0020-10*50T). 75 µL of the supernatant was taken, and 25 µL of NuPAGE LDS Sample Buffer (4X) (Thermo B0007) was added to each tube (5% β-mercaptoethanol was added before use) to prepare samples, and the samples were boiled in a metal bath at 100°C for 5 min. […] 1x NuPAGE™ MOPS SDS electrophoresis buffer (20X) (Invitrogen, NP0001) was prepared, and the electrophoresis instrument was set to a constant current of 300 mA for 100 min, and the protein was transferred to a PVDF membrane (Millipore, IPVH00010). […] The membrane was washed three times with 1x TBST (Elabscience E-BC-R335) the next day, each time for 5 min. […] The membrane was washed three times with TBST, each time for 5 min. The Odyssey imaging system Li-cor Odyssey CLx was used to detect signals and analyze data. GraphPad (Prism 9.3) software was used to perform analysis for data, and non-linear fitting (non-liner inhibitor (Bell-shaped)) and four parameters (4 parameter) were used, and the parameters was as follows: Span1 = Plateau1−Dip [formula] Span2 = Plateau2−Dip [formula] Section1 = Span1/(1+10^(∧)((LogEC50_1−X)*nH1)) [formula] Section2 = Span2/(1+10^(∧)((X−LogEC50_2)*nH2)) [formula]
The equation was as follows: Y=Dip+Section1+Section2.

IRAK4 [2] = target: T1, IRAK4; experiment: Hibit fluorescence detection of proteolysis (IRAK4-HiBiT in HEK293T cells); assay type: cell-based; design: host or cells: HEK293T (ATCC); settings: for Dmax: HEK-293T; for DC50: IRAK4-HiBiT, HEK293T cells, 24 h
Method in brief: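 Degradation read-out: luminescence from lytic HiBiT detection (15 min, room temperature) after 24 h compound exposure (37 °C, 5% CO2) of HEK293T cells transiently expressing IRAK4 fused to a HiBiT tag. Data fitted to a bell-shaped four-parameter model giving two EC50 values.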

SMILES | DC50 (IRAK4 [1]) | Dmax (IRAK4 [1]; read-out: Dmax) | Dmax (IRAK4 [1]) | Dmax (IRAK4 [2]) | DC50 (IRAK4 [2])
Cn1c(=O)n(C2CCC(=O)NC2=O)c2cccc(N3CCCN(C[C@H]4CC[C@H](n5cc(-n6cc(-c7ccc8cc(C(N)=O)cnn78)nn6)c(C(F)F)n5)CC4)CC3)c21 (relative stereo) [Example 289, 7-(1-(3-(difluoromethyl)-1-((1R,4R)-4-((4-(1-(2,6-dioxopiperidin-3-yl)-3-methyl-2-oxo-2,3-dihydro-1H-benzoimidazol-4-yl)-1,4-diazepan-1-yl)methyl)cyclohexyl)-1H-pyrazol-4-yl)-1H-1,2,3-triazol-4-yl)pyrrolo[1,2-b]pyridazine-3-carboxamide] | < 10 nM | < 60% |  |  | 
Cn1nc(N2CCC(=O)NC2=O)c2ccc(N3CCC(N4CCN(C[C@H]5CC[C@H](n6cc(-n7cc(-c8cnn9ccc(N[C@@H]%10CCCC[C@@H]%10O)nc89)nn7)c(C(F)F)n6)CC5)CC4)CC3)cc21 [Example 161] | > 30 nM | < 60% |  |  | 
C[C@H]1CN(C[C@H]2CC[C@H](n3cc(-n4cc(-c5cnn6ccc(N[C@@H]7CCCC[C@@H]7O)nc56)nn4)c(C(F)F)n3)CC2)CCN1C1CCN(c2cccc3c2n(C)c(=O)n3C2CCC(=O)NC2=O)CC1 (stereo partly drawn) [Example 166] | < 10 nM | > 70% |  |  | 
Cn1c(=O)n(C2CCC(=O)NC2=O)c2cccc(N3CCC(CN4CCC5(CCC(n6cc(-n7cc(-c8cnn9ccc(N[C@@H]%10CCCC[C@@H]%10O)nc89)nn7)c(C(F)F)n6)CC5)CC4)CC3)c21 (stereo partly drawn) [Example 171, 3-(4-(4-((9-(3-(difluoromethyl)-4-(4-(5-(((1R,2S)-2-hydroxycyclohexyl)amino)pyrazolo[1,5-a]pyrimidin-3-yl)-1H-1,2,3-triazol-1-yl)-1H-pyrazol-1-yl]-3-azaspiro[5.5]undecan-3-yl)methyl)piperidin-1-yl)-3-methyl-2-oxo-2,3-dihydro-1H-benzo[d]imidazol-1-yl)piperidine-2,6-dione] | < 10 nM | > 70% |  |  | 
Cn1c(=O)n(C2CCC(=O)NC2=O)c2cccc(N3CCC(CN4CCC5(CCC(n6cc(-n7cc(-c8ccc9cc(C(N)=O)cnn89)nn7)c(C(F)F)n6)CC5)CC4)CC3)c21 (stereo not drawn) [Example 172] | < 10 nM | > 70% |  |  | 
Cn1c(=O)n(C2CCC(=O)NC2=O)c2cccc(N3CCC(N4CCN(C[C@H]5CC[C@H](n6cc(-n7cc(-c8cnn9ccc(N%10CCOC[C@@H]%10CO)nc89)nn7)c(C(F)F)n6)CC5)CC4)CC3)c21 (stereo partly drawn) [Example 173] | < 10 nM | > 70% |  |  | 
Cn1c(=O)n(C2CCC(=O)NC2=O)c2cccc(N3CCC4(CCN(C[C@H]5CC[C@H](n6cc(-n7cc(-c8cnn9ccc(N%10CCOC[C@@H]%10CO)nc89)nn7)c(C(F)F)n6)CC5)CC4)CC3)c21 (stereo partly drawn) [Example 174] | < 10 nM | > 70% |  |  | 
Cn1c(=O)n(C2CCC(=O)NC2=O)c2cccc(N3CCC(N4CCN(C[C@H]5CC[C@H](n6cc(-n7cc(-c8cnn9ccc(N%10CCO[C@@H](CO)C%10)nc89)nn7)c(C(F)F)n6)CC5)CC4)CC3)c21 (stereo partly drawn) [Example 175] | < 10 nM | > 70% |  |  | 
Cn1c(=O)n(C2CCC(=O)NC2=O)c2cccc(N3CCC4(CCN(CC5CCC(n6cc(-n7cc(-c8cnn9ccc(N%10CCO[C@@H](CO)C%10)nc89)nn7)c(C(F)F)n6)CC5)CC4)CC3)c21 (stereo partly drawn) [Example 176] | < 10 nM |  | A (Dmax ≥ 70%) |  | 
Cn1c(=O)n(C2CCC(=O)NC2=O)c2cccc(N3CCC(N4CCN(C[C@H]5CC[C@H](n6cc(-n7cc(-c8cnn9ccc(N%10CCC[C@@H](O)C%10)nc89)nn7)c(C(F)F)n6)CC5)CC4)CC3)c21 (stereo partly drawn) [Example 247] | < 10 nM | > 70% |  |  | 
Cn1c(=O)n(C2CCC(=O)NC2=O)c2cccc(N3CCN(C[C@H]4CC[C@H](n5cc(-n6cc(-c7cnn8ccc(N[C@@H]9CCCC[C@@H]9O)nc78)nn6)c(C(F)F)n5)CC4)CC3)c21 (stereo partly drawn) [Example 268] |  |  |  | 70 to 80% | 0.5 to 1 nM
C[C@H]1CN(c2cccc3c2n(C)c(=O)n3C2CCC(=O)NC2=O)CCN1C[C@H]1CC[C@H](n2cc(-n3cc(-c4cnn5ccc(N6CCC(C)(O)CC6)nc45)nn3)c(C(F)F)n2)CC1 (stereo partly drawn) [Example 284] |  |  |  | 70 to 80% | < 0.5 nM
